# Assay results as given in US20030216398A1, “Soluble beta amyloid precursor protein secretion promoters” (priority 2002, published 2003).
# Structures can show the parent of a compound that is named as a salt.
row,SMILES,melting point
1,COc1ccc(C(=O)N2CCC(Nc3ccccc3C(C)C)c3ccccc32)cc1OC.Cl (stereo not drawn),93 to 96 °C
2,"COc1ccc(C(=O)N2CCC(Nc3ccccc3Cl)c3ccc(Cl)cc32)cc1OC (stereo not drawn) (as salt: hydrochloride) [Example 51, 7-Chloro-N-(2-chlorophenyl)-1-(3,4-dimethoxybenzoyl)-1,2,3,4-tetrahydro-4-quinolinamine Hydrochloride]",74 to 76 °C
3,"COc1ccc(C(=O)N2c3ccccc3[C@H](N(C)c3ccccc3)C[C@@H]2C)cc1OC (racemic) [Example 28, cis-1-(3,4-Dimethoxybenzoyl)-N,2-dimethyl-N-phenyl-1,2,3,4-tetrahydro-4-quinolinamine]",180 to 181 °C
4,"C[C@H]1C[C@@H](Nc2ccccc2)c2ccccc2N1C(=O)c1ccncc1 (relative stereo) (hydrate or solvate) [Example 3, cis-1-Isonicotinoyl-2-methyl-N-phenyl-1,2,3,4-tetrahydro-4-quinolinamine]",210 °C
5,"C[C@H]1C[C@@H](Nc2ccccc2)c2ccccc2N1C(=O)c1ccncc1 (relative stereo) [Example 3, cis-1-Isonicotinoyl-2-methyl-N-phenyl-1,2,3,4-tetrahydro-4-quinolinamine]",121 °C
6,"C[C@H]1C[C@@H](Nc2ccccc2)c2ccccc2N1C(=O)c1ccccn1 (relative stereo) [Example 4, cis-2-Methyl-N-phenyl-1-(2-pyridinylcarbonyl)-1,2,3,4-tetrahydro-4-quinolinamine]",157 °C
7,"C[C@H]1C[C@H](Nc2ccccc2)c2ccccc2N1C(=O)c1ccc2c(c1)OCO2 (relative stereo) [Example 7, Trans-1-(1,3-Benzodioxol-5-ylcarbonyl)-2-methyl-N-phenyl-1,2,3,4-tetrahydro-4-quinolinamine]",175 °C
8,"COc1cc(C(=O)N2c3ccccc3[C@@H](Nc3ccccc3)C[C@@H]2C)cc(OC)c1OC (relative stereo) [Example 8, Trans-2-Methyl-N-phenyl-1-(3,4,5-trimethoxybenzoyl)-1,2,3,4-tetrahydro-4-quinolinamine]",205 °C
9,"COc1ccc(C(=O)N2c3ccccc3[C@@H](Nc3cccc(C)n3)C[C@@H]2C)cc1OC (relative stereo) [Example 13, Trans-1-(3,4-Dimethoxybenzoyl)-2-methyl-N-(6-methyl-2-pyridinyl)-1,2,3,4-tetrahydro-4-quinolinamine]",184 to 186 °C
10,"C[C@H]1C[C@H](Nc2ccccc2)c2ccccc2N1C(=O)c1ccc(Br)o1 (relative stereo) [Example 41, trans-1-(5-Bromo-2-furoyl)-2-methyl-N-phenyl-1,2,3,4-tetrahydro-4-quinolinamine]",117 to 118 °C
11,"C[C@H]1C[C@@H](Nc2ccccc2)c2ccccc2N1C(=O)c1ccc(-c2ccc(Cl)cc2)cc1 (relative stereo) [Example 52, cis-1-[(4′-Chloro[1,1′-biphenyl]-4-yl)carbonyl]-2-methyl-N-phenyl-1,2,3,4-tetrahydro-4-quinolinamine]",193 to 194 °C
12,"CC1CC(Nc2ccccc2)c2ccccc2N1C(=O)c1ccc2c(c1)OCO2 (stereo not drawn) [Example 5, cis-1-(1,3-Benzoxol-5-ylcarbonyl)-2-methyl-N-phenyl-1,2,3,4-tetrahydro-4-quinolinamine]",175 °C
13,"COc1cc(C(=O)N2c3ccccc3C(Nc3ccccc3)CC2C)cc(OC)c1OC (stereo not drawn) [Example 6, cis-2-Methyl-N-phenyl-1-(3,4,5-trimethoybenzoyl)-1,2,3,4-tetrahydro-4-quinolinamine]",300 °C
14,"COc1ccc(C(=O)N2c3ccccc3C(Nc3ccc(Br)cc3)CC2C)cc1OC (stereo not drawn) [Example 12, N-(4-Bromophenyl)-1-(3,4-dimethoxybenzoyl)-2-methyl-1,2,3,4-tetrahydro-4-quinolinamine]",173 to 175 °C
15,"COc1ccc(C(=O)N2CCC(Nc3ccc(Cl)cc3)c3ccccc32)cc1OC (stereo not drawn) [Example 14, N-(4-chlorophenyl)-1-(3,4-dimethoxybenzoyl)-1,2,3,4-tetrahydro-4-quinolinamine]",131 °C
16,"COc1ccc(C(=O)N2CCC(Nc3ccccc3)c3ccccc32)cc1OC (stereo not drawn) [Example 17, 1-(3,4-Dimethoxybenzoyl)-N-phenyl-1,2,3,4-tetrahydro-4-quinolinamine]",155 to 156 °C
17,"COc1ccc(C(=O)N2CCC(N(C)c3ccccc3)c3ccccc32)cc1OC (stereo not drawn) [Example 18, 1-(3,4-Dimethoxybenzoyl)-N-methyl-N-phenyl-1,2,3,4-tetrahydro-4-quinolinamine]",143 to 144 °C
18,COc1ccc(C(=O)N2CCC(Oc3ccc(Br)cc3)c3ccccc32)cc1OC (stereo not drawn) [Example 19],56 to 57 °C
19,"COc1ccc(C(=O)N2CCN(Cc3ccccc3)c3ccccc32)cc1OC [Example 20, 1-Benzyl-4-(3,4-dimethoxybenzoyl)-1,2,3,4-tetrahydroquinoxaline]",111 to 112 °C
20,"COc1ccc(C(=O)N2CCC(Nc3ccc4ncccc4c3)c3ccccc32)cc1OC (stereo not drawn) [Example 21, 1-(3,4-Dimethoxybenzoyl)-N-(6-quinolinyl)-1,2,3,4-tetrahydro-4-quinolinamine]",116 to 118 °C

row,SMILES,melting point
1,"COc1ccc(C(=O)N2CCC(Nc3ccccn3)c3ccccc32)cc1OC (stereo not drawn) [Example 22, 1-(3,4-Dimethoxybenzoyl)-N-(2-pyridinyl)-1,2,3,4-tetrahydro-4-quinolinamine]",156 to 157 °C
2,"COc1ccc(C(=O)N2CCC(Nc3ccccc3Cl)c3ccccc32)cc1OC (stereo not drawn) [Example 23, N-(2-Chlorophenyl)-1-(3,4-dimethoxybenzoyl)-1,2,3,4-tetrahydro-4-quinolinamine]",92 to 93 °C
3,"COc1ccc(C(=O)N2CCC(Nc3ccccc3F)c3ccccc32)cc1OC (stereo not drawn) [Example 24, 1-(3,4-Dimethoxybenzoyl)-N-(2-fluorophenyl)-1,2,3,4-tetrahydro-4-quinolinamine]",133 to 134 °C
4,"COc1ccc(C(=O)N2CCC(N(C)c3ccccc3C)c3ccccc32)cc1OC (stereo not drawn) [Example 25, 1-(3,4-Dimethoxybenzoyl)-N-methyl-N-(2-methylphenyl)-1,2,3,4-tetrahydro-4-quinolinamine]",170 to 171 °C
5,"COc1ccc(C(=O)N2CCC(Nc3c(Cl)cccc3Cl)c3ccccc32)cc1OC (stereo not drawn) [Example 26, N-(2,6-Dichlorophenyl)-1-(3,4-dimethoxybenzoyl)-1,2,3,4-tetrahydro-4-quinolinamine]",154 to 156 °C
6,"COc1ccc(C(=O)N2c3ccccc3C(Nc3ccccc3Cl)CC2C)cc1OC (stereo not drawn) [Example 27, N-(2-Chlorophenyl)-1-(3,4-dimethoxybenzoyl)-2-methyl-1,2,3,4-tetrahydro-4-quinolinamine]",148 to 150 °C
7,"COc1ccc(C(=O)N2CCC(Nc3ccc4c(c3)OCO4)c3ccccc32)cc1OC (stereo not drawn) [Example 31, N-(1,3-Benzodioxol-5-yl)-1-(3,4-dimethoxybenzoyl)-1,2,3,4-tetrahydro-4-quinolinamine]",135 to 136 °C
8,"COc1ccc(C(=O)N2CCC(Nc3cccc(Cl)c3)c3ccccc32)cc1OC (stereo not drawn) [Example 32, N-(3-Chlorophenyl)-1-(3,4-dimethoxybenzoyl)-1,2,3,4-tetrahydro-4-quinolinamine]",160 °C
9,"COc1ccc(C(=O)N2CCC(Nc3ccc(Br)cc3)c3ccccc32)cc1OC (stereo not drawn) [Example 34, N-(4-Bromophenyl)-1-(3,4-dimethoxybenzoyl)-1,2,3,4-tetrahydro-4-quinolinamine]",130 °C
10,"COc1ccc(C(=O)N2CCC(N(C)c3ccccc3Cl)c3ccccc32)cc1OC (stereo not drawn) [Example 35, N-(2-Chlorophenyl)-1-(3,4-dimethoxybenzoyl)-N-methyl-1,2,3,4-tetrahydro-4-quinolinamine]",146 to 147 °C
11,"COc1ccc(C(=O)N2CCC(N(C)c3ccc(Cl)cc3)c3ccccc32)cc1OC (stereo not drawn) [Example 36, N-(4-Chlorophenyl)-1-(3,4-dimethoxybenzoyl)-N-methyl-1,2,3,4-tetrahydro-4-quinolinamine]",72 to 74 °C
12,"COc1ccc(C(=O)N2CCC(N(C)c3ccc(Br)cc3)c3ccccc32)cc1OC (stereo not drawn) [Example 37, N-(4-Bromophenyl)-1-(3,4-dimethoxybenzoyl)-N-methyl-1,2,3,4-tetrahydro-4-quinolinamine]",73 to 74 °C
13,"COc1ccc(C(=O)N2CCC(Nc3ccc(C)c(Cl)c3)c3ccccc32)cc1OC (stereo not drawn) [Example 38, N-(3-Chloro-4-methylphenyl)-1-(3,4-dimethoxybenzoyl)-1,2,3,4-tetrahydro-4-quinolinamine]",94 to 96 °C
14,"COc1ccc(C(=O)N2CCC(Nc3ccccc3Cl)c3cc(Cl)ccc32)cc1OC (stereo not drawn) [Example 39, 6-Chloro-N-(2-chlorophenyl)-1-(3,4-dimethoxybenzoyl)-1,2,3,4-tetrahydro-4-quinolinamine]",87 to 89 °C
15,"COc1ccc(C(=O)N2CCN(Cc3ccc(-c4ccccc4)cc3)c3ccccc32)cc1OC [Example 42, 1-([1,1′-Biphenyl]-4-ylmethyl)-4-(3,4-dimethoxybenzoyl)-1,2,3,4-tetrahydroquinoxaline]",133 to 134 °C
16,"COc1ccc(C(=O)N2c3ccccc3C(Nc3ccc(Cl)cc3Cl)CC2C)cc1OC (stereo not drawn) [Example 43, N-(2,4-Dichlorophenyl)-1-(3,4-dimethoxybenzoyl)-2-methyl-1,2,3,4-tetrahydro-4-quinolinamine]",165 to 167 °C
17,"COc1ccc(C(=O)N2CCC(Nc3ccc(Cl)cc3)c3cc(Cl)ccc32)cc1OC (stereo not drawn) [Example 47, 6-Chloro-N-(4-chlorophenyl)-1-(3,4-dimethoxybenzoyl)-1,2,3,4-tetrahydro-4-quinolinamine]",176 to 178 °C
18,"COc1ccc(C(=O)N2CCC(Nc3ccccc3)c3cc(Cl)ccc32)cc1OC (stereo not drawn) [Example 48, 6-Chloro-1-(3,4-dimethoxybenzoyl)-N-phenyl-1,2,3,4-tetrahydro-4-quinolinamine]",188 to 189 °C
19,"COc1ccc(C(=O)N2CCC(Nc3ccccc3)c3ccc(Cl)cc32)cc1OC (stereo not drawn) [Example 50, 7-Chloro-1-(3,4-dimethoxybenzoyl)-N-phenyl-1,2,3,4-tetrahydro-4-quinolinamine]",125 to 126 °C
